Test results published in PMC5901408 (Pest Management Science, 2017).
Numbering of substitutions follows the chain as printed.

How the values were obtained:
ZmEPSPS [1] = target: T1, ZmEPSPS (Zea mays, UniProt A0A1D6NVZ6, P168A/T164I); assay: EPSPS enzyme activity assay, glyphosate titration; type: biochemical
T1 sequence (A0A1D6NVZ6 63-506 T164I/P168A): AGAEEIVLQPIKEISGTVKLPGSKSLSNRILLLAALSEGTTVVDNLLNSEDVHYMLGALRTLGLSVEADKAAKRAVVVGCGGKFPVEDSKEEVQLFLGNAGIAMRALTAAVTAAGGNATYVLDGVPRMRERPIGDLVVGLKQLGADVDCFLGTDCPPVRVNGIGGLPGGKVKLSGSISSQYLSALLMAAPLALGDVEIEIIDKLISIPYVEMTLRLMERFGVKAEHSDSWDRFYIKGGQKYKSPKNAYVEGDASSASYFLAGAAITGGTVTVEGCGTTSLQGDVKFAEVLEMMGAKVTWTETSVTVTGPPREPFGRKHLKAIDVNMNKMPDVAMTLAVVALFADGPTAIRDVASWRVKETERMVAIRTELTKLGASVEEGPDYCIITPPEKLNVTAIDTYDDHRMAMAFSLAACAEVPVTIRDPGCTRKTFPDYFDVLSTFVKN

ZmEPSPS [2] = target: T2, ZmEPSPS (Zea mays, UniProt A0A1D6NVZ6); assay: EPSPS enzyme activity assay, glyphosate titration; type: biochemical
T2 sequence (A0A1D6NVZ6 63-506): T1 sequence (A0A1D6NVZ6 63-506 T164I/P168A) with I102T, A106P

`O=C(O)CNCP(=O)(O)O` [glyphosate] gave an IC50 (ZmEPSPS [1]) of 19.5 ± 2.8 mM and an IC50 (ZmEPSPS [2]) of 0.0139 ± 0.0035 mM.
